Experimental data taken from PubChem BioAssay AID256 (DTP/NCI, 2004).
“And” between values parts separate entries of the source, which are not always exact repeats. Equal values may be shown once. Toxic doses and inconclusive results are not listed.

Test system: CD2F1 mice, L1210 leukemia ip, survival T/C
Assay: NCI In Vivo Anticancer Drug Screen. Data for tumor model L1210 Leukemia (intraperitoneal) in CD2F1 (CDF1) mice
Details: higher = longer survival
Outline: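 Ratio T/C, where T is the treated-group value and C the vehicle-dosed control value, from mice implanted with a transplantable tumor.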

[1] = endpoint: median survival time, dose: 6.25 mg/kg/injection, schedule: Q01DX009 (ip), vehicle: saline with Tween-80
[2] = endpoint: mean survival time, dose: 25.0 mg/kg/injection, schedule: Q04DX003 (ip), vehicle: saline with Tween-80
[3] = endpoint: mean survival time, dose: 50.0 mg/kg/injection, schedule: Q04DX003 (ip), vehicle: saline with Tween-80
[4] = endpoint: mean survival time, dose: 100.0 mg/kg/injection, schedule: Q04DX003 (ip), vehicle: saline with Tween-80
[5] = endpoint: mean survival time, dose: 100.0 mg/kg/injection, schedule: Q01DX009 (ip), vehicle: saline with Tween-80
[6] = endpoint: mean survival time, dose: 100.0 mg/kg/injection, schedule: Q04DX003 (ip), vehicle: saline
[7] = endpoint: mean survival time, dose: 200.0 mg/kg/injection, schedule: Q01DX009 (ip), vehicle: saline with Tween-80
[8] = endpoint: mean survival time, dose: 200.0 mg/kg/injection, schedule: Q04DX003 (ip), vehicle: saline
[9] = endpoint: mean survival time, dose: 400.0 mg/kg/injection, schedule: Q01DX009 (ip), vehicle: saline with Tween-80
[10] = endpoint: mean survival time, dose: 400.0 mg/kg/injection, schedule: Q04DX003 (ip), vehicle: saline
[11] = endpoint: mean survival time, dose: 100.0 mg/kg/injection, schedule: Q04DX002 (ip), vehicle: saline
[12] = endpoint: mean survival time, dose: 200.0 mg/kg/injection, schedule: Q04DX002 (ip), vehicle: saline
[13] = endpoint: mean survival time, dose: 100.0 mg/kg/injection, schedule: Q04DX002 (ip), vehicle: saline with Tween-80
[14] = endpoint: mean survival time, dose: 200.0 mg/kg/injection, schedule: Q04DX002 (ip), vehicle: saline with Tween-80
[15] = endpoint: mean survival time, dose: 400.0 mg/kg/injection, schedule: Q04DX002 (ip), vehicle: saline with Tween-80
[16] = endpoint: mean survival time, dose: 200.0 mg/kg/injection, schedule: Q04DX003 (ip), vehicle: saline with Tween-80
[17] = endpoint: mean survival time, dose: 400.0 mg/kg/injection, schedule: Q04DX003 (ip), vehicle: saline with Tween-80

CO[C@@H]1[C@H](O)CC[C@]2(CO2)[C@H]1[C@@]1(C)O[C@@H]1CC=C(C)C
T/C (endpoint: median survival time, dose: 1.56 mg/kg/injection, schedule: Q01DX009 (ip), vehicle: saline with Tween-80): 101 % of control and 103 % of control | T/C (endpoint: median survival time, dose: 3.12 mg/kg/injection, schedule: Q01DX009 (ip), vehicle: saline with Tween-80): 93 % of control and 102 % of control | T/C [1]: 97 % of control and 105 % of control | T/C (endpoint: median survival time, dose: 12.5 mg/kg/injection, schedule: Q01DX009 (ip), vehicle: saline with Tween-80): 101 % of control and 102 % of control | T/C (endpoint: median survival time, dose: 25.0 mg/kg/injection, schedule: Q01DX009 (ip), vehicle: saline with Tween-80): 101 % of control and 102 % of control | T/C (endpoint: median survival time, dose: 50.0 mg/kg/injection, schedule: Q01DX009 (ip), vehicle: saline with Tween-80): 97 % of control and 103 % of control

N#CC1C(=O)NC(O)(c2ccccc2)C1c1ccccc1 (stereo not given)
T/C [2]: 105 % of control | T/C [3]: 105 % of control | T/C [4]: 97 % of control and 105 % of control

CCOC(=O)c1csc(-c2csc(CCNC(=O)c3ccccc3)n2)n1
T/C (endpoint: mean survival time, dose: 100.0 mg/kg/injection, schedule: Q01DX001 (ip), vehicle: saline with Tween-80): 97 % of control | T/C [5]: 102 % of control | T/C [6]: 96 % of control | T/C (endpoint: mean survival time, dose: 200.0 mg/kg/injection, schedule: Q01DX001 (ip), vehicle: saline with Tween-80): 98 % of control | T/C [7]: 100 % of control | T/C [8]: 101 % of control | T/C (endpoint: mean survival time, dose: 400.0 mg/kg/injection, schedule: Q01DX001 (ip), vehicle: saline with Tween-80): 101 % of control | T/C [9]: 96 % of control | T/C [10]: 95 % of control

O=C1C=CC2OC(c3ccccc3)C(O)C2O1 (stereo not given)
T/C (endpoint: median survival time, dose: 3.12 mg/kg/injection, schedule: Q01DX005 (ip), vehicle: DMSO): 111 % of control | T/C (endpoint: median survival time, dose: 6.25 mg/kg/injection, schedule: Q01DX005 (ip), vehicle: DMSO): 101 % of control | T/C (endpoint: median survival time, dose: 12.5 mg/kg/injection, schedule: Q01DX005 (ip), vehicle: DMSO): 112 % of control | T/C (endpoint: median survival time, dose: 25.0 mg/kg/injection, schedule: Q01DX005 (ip), vehicle: DMSO): 115 % of control | T/C (endpoint: median survival time, dose: 50.0 mg/kg/injection, schedule: Q01DX005 (ip), vehicle: DMSO): 87 % of control

Nc1ncnc2c1ncn2C1OC(C(=O)OCCO)C(O)C1O (stereo not given)
T/C (endpoint: mean survival time, dose: 12.5 mg/kg/injection, schedule: Q01DX009 (ip), vehicle: saline): 108 % of control | T/C (endpoint: mean survival time, dose: 25.0 mg/kg/injection, schedule: Q01DX009 (ip), vehicle: saline): 114 % of control | T/C (endpoint: mean survival time, dose: 25.0 mg/kg/injection, schedule: Q01DX009 (ip), vehicle: suspension in saline): 110 % of control | T/C (endpoint: mean survival time, dose: 25.0 mg/kg/injection, schedule: Q04DX002 (ip), vehicle: saline): 93 % of control | T/C (endpoint: mean survival time, dose: 50.0 mg/kg/injection, schedule: Q01DX009 (ip), vehicle: suspension in saline): 124 % of control | T/C (endpoint: mean survival time, dose: 50.0 mg/kg/injection, schedule: Q04DX002 (ip), vehicle: saline): 95 % of control | T/C [11]: 93 % of control | T/C [12]: 90 % of control

CC(=O)NCCNC(C)=O
T/C [6]: 91 % of control | T/C [8]: 100 % of control | T/C [10]: 91 % of control

O=[N+]([O-])c1ccc(/C=C2\c3ccccc3-c3nc4ccccc4nc32)cc1
T/C (endpoint: mean survival time, dose: 75.0 mg/kg/injection, schedule: Q01DX009 (ip), vehicle: saline): 86 % of control | T/C (endpoint: mean survival time, dose: 150.0 mg/kg/injection, schedule: Q01DX009 (ip), vehicle: saline): 88 % of control | T/C (endpoint: mean survival time, dose: 300.0 mg/kg/injection, schedule: Q01DX009 (ip), vehicle: saline): 95 % of control

CCOc1ccccc1OC(=O)Nc1ccccc1OC
T/C [13]: 106 % of control | T/C [14]: 88 % of control | T/C [15]: 100 % of control

O=C(Nc1ccccc1)c1c(O)[nH]c(=S)[nH]c1=O
T/C (endpoint: median survival time, dose: 6.2 mg/kg/injection, schedule: Q01DX005 (iv), vehicle: other): 124 % of control | T/C (endpoint: median survival time, dose: 6.2 mg/kg/injection, schedule: Q01DX005 (iv), vehicle: saline with Tween-80): 124 % of control | T/C [1]: 116 % of control | T/C (endpoint: median survival time, dose: 12.5 mg/kg/injection, schedule: Q01DX005 (iv), vehicle: other): 124 % of control | T/C (endpoint: median survival time, dose: 12.5 mg/kg/injection, schedule: Q01DX005 (iv), vehicle: saline with Tween-80): 124 % of control | T/C (endpoint: median survival time, dose: 20.0 mg/kg/injection, schedule: Q01DX009 (ip), vehicle: saline with Tween-80): 119 % of control | T/C (endpoint: median survival time, dose: 25.0 mg/kg/injection, schedule: Q01DX005 (iv), vehicle: other): 158 % of control | T/C (endpoint: median survival time, dose: 25.0 mg/kg/injection, schedule: Q01DX009 (ip), vehicle: other): 197 % of control | T/C (endpoint: median survival time, dose: 25.0 mg/kg/injection, schedule: Q01DX009 (ip), vehicle: water): 124 % of control | T/C (endpoint: median survival time, dose: 30.0 mg/kg/injection, schedule: Q01DX009 (ip), vehicle: saline with Tween-80): 162 % of control | T/C (endpoint: median survival time, dose: 44.0 mg/kg/injection, schedule: Q01DX009 (ip), vehicle: saline with Tween-80): 157 % of control and 168 % of control | T/C (endpoint: median survival time, dose: 50.0 mg/kg/injection, schedule: Q01DX009 (ip), vehicle: other): 114 % of control | T/C (endpoint: median survival time, dose: 50.0 mg/kg/injection, schedule: Q01DX009 (ip), vehicle: water): 204 % of control | T/C (endpoint: median survival time, dose: 67.0 mg/kg/injection, schedule: Q01DX009 (ip), vehicle: saline with Tween-80): 182 % of control and 192 % of control

COc1cc(C=O)cc(O)c1O
T/C (endpoint: mean survival time, dose: 50.0 mg/kg/injection, schedule: Q01DX001 (ip), vehicle: saline): 94 % of control | T/C (endpoint: mean survival time, dose: 100.0 mg/kg/injection, schedule: Q01DX001 (ip), vehicle: saline): 96 % of control | T/C [6]: 95 % of control | T/C (endpoint: mean survival time, dose: 200.0 mg/kg/injection, schedule: Q01DX001 (ip), vehicle: saline): 91 % of control | T/C [8]: 92 % of control | T/C (endpoint: mean survival time, dose: 400.0 mg/kg/injection, schedule: Q01DX001 (ip), vehicle: saline): 89 % of control | T/C [10]: 92 % of control

Cc1ccc(Cl)cc1NS(=O)(=O)c1ccccc1
T/C [5]: 94 % of control | T/C [4]: 100 % of control | T/C [7]: 96 % of control | T/C [16]: 105 % of control | T/C [9]: 94 % of control | T/C [17]: 105 % of control

CS(=O)(=O)OCC(OS(C)(=O)=O)C(OS(C)(=O)=O)C(OS(C)(=O)=O)C(COS(C)(=O)=O)OS(C)(=O)=O (stereo not given)
T/C (endpoint: mean survival time, dose: 12.5 mg/kg/injection, schedule: Q01DX009 (ip), vehicle: Klucel (hydroxypropylcellulose) (HPC)): 101 % of control | T/C (endpoint: mean survival time, dose: 25.0 mg/kg/injection, schedule: Q01DX009 (ip), vehicle: Klucel (hydroxypropylcellulose) (HPC)): 104 % of control | T/C (endpoint: mean survival time, dose: 50.0 mg/kg/injection, schedule: Q01DX009 (ip), vehicle: Klucel (hydroxypropylcellulose) (HPC)): 101 % of control

O=c1ccnc(SCc2ccccc2)[nH]1
T/C [13]: 105 % of control | T/C [14]: 101 % of control | T/C [15]: 94 % of control

COc1ccc(OC)c(NC(=O)NNC(=O)CNC(=O)Nc2cccc(C)n2)c1
T/C [7]: 92 % of control | T/C [9]: 88 % of control

CCN(CC)CCCC(C)NS(=O)(=O)c1cccc2c(N(C)C)cccc12 (stereo not given)
T/C (endpoint: mean survival time, dose: 25.0 mg/kg/injection, schedule: Q01DX009 (ip), vehicle: water): 102 % of control | T/C (endpoint: mean survival time, dose: 50.0 mg/kg/injection, schedule: Q01DX009 (ip), vehicle: water): 98 % of control | T/C (endpoint: mean survival time, dose: 100.0 mg/kg/injection, schedule: Q01DX009 (ip), vehicle: water): 96 % of control

O=C1N=C(Oc2ccccc2)SC1=O
T/C (endpoint: mean survival time, dose: 12.5 mg/kg/injection, schedule: Q01DX009 (ip), vehicle: saline with Tween-80): 95 % of control and 104 % of control | T/C (endpoint: mean survival time, dose: 25.0 mg/kg/injection, schedule: Q01DX009 (ip), vehicle: saline with Tween-80): 116 % of control and 101 % of control | T/C (endpoint: mean survival time, dose: 50.0 mg/kg/injection, schedule: Q01DX009 (ip), vehicle: saline with Tween-80): 103 % of control and 106 % of control | T/C [5]: 97 % of control and 101 % of control | T/C [7]: 90 % of control

c1ccc(CCCCc2ccc3ccccc3n2)cc1
T/C [5]: 93 % of control | T/C [4]: 106 % of control | T/C [7]: 102 % of control | T/C [16]: 100 % of control | T/C [9]: 98 % of control | T/C [17]: 100 % of control

CCCCCCNC(=O)Nc1cccc(Cl)c1C
T/C [5]: 94 % of control | T/C [4]: 91 % of control | T/C [7]: 94 % of control | T/C [9]: 103 % of control | T/C [17]: 92 % of control

COc1ccc2c(c1)CCC1(C)C2=CC(=O)/C1=C\[O-].COc1ccc2c(c1)CCC1(C)C2=CC(=O)/C1=C\[O-].[Cu+2] (stereo not given)
T/C [2]: 96 % of control | T/C [3]: 87 % of control | T/C [4]: 86 % of control

[O-][n+]1ccnc2ccccc21
T/C [11]: 105 % of control | T/C [12]: 116 % of control | T/C (endpoint: mean survival time, dose: 400.0 mg/kg/injection, schedule: Q04DX002 (ip), vehicle: saline): 108 % of control
